Usually IC50 stands for the concentration needed to halve the response being measured.

The record followed here is publication PMC6272669, “Protein Tyrosine Phosphatase 1B Inhibitors from the Roots of Cudrania tricuspidata” (Molecules, 2015).

Test [1] has as its target T1, PTP1B (human, recombinant) (Homo sapiens, UniProt P18031).
T1 construct: purchased ATGen Co., Ltd. (Gyeonggi-do, Korea)
T1 sequence (P18031 1-435): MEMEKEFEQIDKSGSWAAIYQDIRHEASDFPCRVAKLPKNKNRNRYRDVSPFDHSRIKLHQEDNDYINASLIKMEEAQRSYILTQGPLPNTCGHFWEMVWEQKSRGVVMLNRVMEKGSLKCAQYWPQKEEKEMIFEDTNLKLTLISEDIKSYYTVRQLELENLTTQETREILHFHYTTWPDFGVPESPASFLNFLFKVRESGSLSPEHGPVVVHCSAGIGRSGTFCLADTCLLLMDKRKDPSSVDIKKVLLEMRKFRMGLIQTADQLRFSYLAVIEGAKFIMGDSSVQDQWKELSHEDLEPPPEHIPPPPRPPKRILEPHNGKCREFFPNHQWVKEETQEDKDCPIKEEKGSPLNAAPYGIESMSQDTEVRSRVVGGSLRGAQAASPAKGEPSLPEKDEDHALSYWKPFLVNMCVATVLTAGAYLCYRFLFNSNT
In words: PTP1B inhibitory activity assay (p-NPP hydrolysis). To be noted: 1 mM p-NPP substrate, pH 6.0, 37.5 °C, 30 min; mean ± SD of triplicate experiments; read-out: PTP1B Inhibitory Effects (IC50 Values). Type of test: biochemical. On the procedure: On the basis of these findings, we evaluated the inhibitory effects of the 16 isolated compounds on PTP1B activity. PTP1B enzyme (human, recombinant) was purchased from ATGen Co., Ltd. (Gyeonggi-do, Korea), and its activity was measured using p-nitrophenyl phosphate (p-NPP). The reaction mixture consisted of 50 mM Bis-Tris (pH 6.0), 2.0 mM EDTA, 5.0 mM dithiothreitol (DTT), PTP1B (0.04 μg), and 1.0 mM p-NPP, with or without test compounds. After incubation at 37.5 °C for 30 min, the reaction was stopped via the addition of 10 N NaOH. The production of p-nitrophenol (p-NP) was evaluated by measuring the absorbance at 405 nm. The non-enzymatic hydrolysis of 1.0 mM p-NPP was corrected by measuring the increase in absorbance at 405 nm in the absence of PTP1B enzyme.
PTP1B (human, recombinant) was purchased from ATGen Co., Ltd. (Gyeonggi-do, Korea). The enzyme activity was measured in a reaction mixture containing 1 mM p-NPP in 50 mM Bis-Tris (pH 6.0), 2.0 mM EDTA, and 5.0 mM dithiothreitol (DTT). The reaction mixture was placed in a 37.5 °C for 30 min, followed by termination of the reaction with the addition of 10 N NaOH. The amount of p-NP produced was estimated by measuring the increase in absorbance at 405 nm. The non-enzymatic hydrolysis of 1.0 mM p-NPP was corrected by measuring the increase in absorbance at 405 nm obtained in the absence of PTP1B enzyme. Inhibition kinetics studies were performed in the presence or absence of compounds 1 and 13 with different concentrations of p-NPP. Data were fitted by nonlinear regression analysis according to a Michaelis-Menten kinetic model using GraphPad Prism 5.01.

Test [2] addresses T1, PTP1B (human, recombinant). Briefly: Enzyme kinetic study of PTP1B inhibition (Lineweaver-Burk plots). Format: biochemical. To be noted: Lineweaver-Burk plots: reduction in Vmax, no change in Km. On the procedure: To elucidate the characteristics of PTP1B inhibition by the prenylated xanthones and flavonoids, compounds 1 and 13 were selected for an enzyme kinetic study. The kinetic studies were conducted using different concentrations of compounds 1, 13, and p-NPP. The initial rate was determined on the basis of the rate of increase in absorbance at 405 nm. The Michaelis–Menten constant (Km) and maximal velocity (Vmax) of PTP1B were determined by Lineweaver–Burk Plot analysis for competitive inhibition and the intercept on the vertical axis for noncompetitive inhibition. […]
Figure 2 Lineweaver-Burk plots for inhibition of PTP1B-catalyzed hydrolysis of p-NPP by compounds 1 (A) and 13 (B). Data are expressed as mean initial velocity for triplicate experiments (n = 3) at each substrate concentration.
PTP1B (human, recombinant) was purchased from ATGen Co., Ltd. (Gyeonggi-do, Korea). The enzyme activity was measured in a reaction mixture containing 1 mM p-NPP in 50 mM Bis-Tris (pH 6.0), 2.0 mM EDTA, and 5.0 mM dithiothreitol (DTT). […] The amount of p-NP produced was estimated by measuring the increase in absorbance at 405 nm. The non-enzymatic hydrolysis of 1.0 mM p-NPP was corrected by measuring the increase in absorbance at 405 nm obtained in the absence of PTP1B enzyme. […]

As to `C=CC(C)(C)c1c2c(c3oc4cc(O)c(O)cc4c(=O)c3c1O)C=CC(C)(C)O2` [Compound 1, cudratricusxanthone N], the 50% inhibitory concentration (IC50) in test [1] is 2 ± 0.4 µM. For the same compound, in test [2], the “Mode of PTP1B inhibition” value was “noncompetitive”.

For `C=CC(C)(C)c1c(OC)cc2oc3cc(O)c(O)cc3c(=O)c2c1O` [Compound 2, 1,6,7-trihydroxy-2-(1,1-dimethyl-2-propenyl)-3-methoxyxanthone], in test [1], the IC50 is 3 ± 0.6 µM.

On to `C=CC(C)(C)c1c(O)cc(O)c2c(=O)c3cc(O)c(O)cc3oc12` [Compound 3, cudratricusxanthone L], for which the IC50 in test [1] was determined as 3 ± 0.3 µM.

With `C=CC(C)(C)c1c(O)cc(O)c2c(=O)c3c(CC=C(C)C)c(O)c(O)cc3oc12` [Compound 4, cudratricusxanthone A], in test [1], the concentration for half-maximal inhibition (IC50) was 4.3 ± 0.6 µM.

Turning to `C=CC(C)(C)c1c(O)cc2oc3c(CC=C(C)C)c(O)c(O)cc3c(=O)c2c1O` [Compound 5, cudraxanthone L], in test [1], the IC50 amounted to 4.6 ± 0.8 µM.

As for `C=CC(C)(C)c1c(O)c(CC=C(C)C)c2oc3cc(O)c(O)cc3c(=O)c2c1O` [Compound 6, macluraxanthone B], the half-maximal inhibitory concentration (IC50) in test [1] stood at 3.8 ± 0.5 µM.

Turning to `C=CC(C)(C)c1c(OC)c(CC=C(C)C)c2oc3cc(O)c(O)cc3c(=O)c2c1O` [Compound 7, cudracuspixanthone A], the IC50 in test [1] is 1.9 ± 0.4 µM.

With `CC(C)=CCc1c2c(c(O)c3c(=O)c4cc(O)c(O)cc4oc13)C(C)(C)C(C)O2` (stereo not drawn) [Compound 8], in test [1], the IC50 turned out to be 2.8 ± 0.6 µM.

Turning to `CC(C)=CCc1c(O)c(O)cc2c(=O)c3c(O)c4c(cc3oc12)OC(C)C4(C)C` (stereo not drawn) [Compound 9, cudraxanthone M], the 50% inhibitory concentration (IC50) in test [1] is 3.5 ± 0.7 µM.

In the case of `CC(C)=CCc1cc([C@@H]2CC(=O)c3c(cc(O)c(CC=C(C)C)c3O)O2)c(O)cc1O` [Compound 13, cudraflavanone D], the IC50 in test [1] worked out at 5.7 ± 1.5 µM. The “Mode of PTP1B inhibition” value in test [2] is recorded as “noncompetitive”.

With `CC(C)=CCc1c(O)cc2c(c1O)C(=O)C[C@@H](c1cc3c(cc1O)OC(C)(C)C=C3)O2` [Compound 14, euchrestaflavanone C], the IC50 in test [1] is 12.3 ± 2.2 µM.

With `CC(C)=CCc1c(O)cc2oc(-c3ccc(O)cc3O)c(CC=C(C)C)c(=O)c2c1O` [Compound 15, cudraflavone C], the IC50 in test [1] turned out to be 9.4 ± 2.9 µM.

On to `CC(C)=CCc1c(-c2ccc(O)cc2O)oc2c(CC=C(C)C)c(O)cc(O)c2c1=O` [Compound 16, kuwanon C], for which the IC50 in test [1] is 13.6 ± 3.3 µM.
